Holding throughout (type): cell-based
For one assay, the system named is A431 cells. The experiment in a line: In vitro cytotoxicity assay, CellTiter-Glo, 96 hours after treatment (mAb2 conjugates and free compounds). To be noted: Homo sapiens, A-431, 96 h, read-out: A431 Antibody IC50 (nM). On the procedure: (§1) In vitro cytotoxicity assays were carried out using various antibodies, payloads (i.e., agent moieties), and amine donor units. For mAb2 (a chimeric IgG1 antibody), target expressing (A431, OVCAR3, BxPC3 and HT-29) or non-expressing (SW620) cells were seeded on white walled clear bottom plates at 2000 cells/well for 24 hours before treatment. […] Cell viability was determined by CellTiter-Glo® Luminescent Cell Viability Assay 96 (Promega, Madison Wis.) 96 hours after treatment. […] IC50 was calculated by Prism software.

Another assay has as its system SW620 cells. The experiment in a line: In vitro cytotoxicity assay, CellTiter-Glo, 96 hours after treatment, target non-expressing cells. Conditions: read-out: SW620 Antibody IC50. On the procedure:
as §1

A further assay relates to HT-29 cells. The experiment in a line: In vitro cytotoxicity assay, CellTiter-Glo, 96 hours after treatment (mAb2 conjugates and free compounds). To be noted: Homo sapiens, HT-29, target expressing, column also holds free compounds, read-out: HT-29 Antibody IC50. The method, then: as §1
Another assay concerns BxPC3 cells. The assay is described as above. Conditions: BxPC3, target expressing, column also holds free compounds, read-out: BxPC3 Antibody IC50. The method, then:
as §1

Read-outs that look alike come from different tables or passages of the source. Where only a bound is given, the exact number is not on record here.

With `CO[C@H]1/C=C\C=C(/C)C(=O)NC2=CC(=O)C(NCCCCNC(=O)[C@H](CCCCN)NC(C)=O)=C(C[C@@H](C)C[C@H](OC)[C@H](O)[C@@H](C)/C=C(\C)[C@@H]1OC(N)=O)C2=O` [Sample 26, AcLys-Putrescinyl-Geldanamycin], the IC50 was above 1000 nM in the assay with A431 cells and above 1 µM in the assay on SW620 cells (Homo sapiens, SW-620, values only for free compounds).
Turning to `CC[C@H](C)[C@@H](C(CC(=O)N1CCCC1C(OC)[C@@H](C)C(=O)NC(Cc1ccccc1)c1nccs1)OC)N(C)C(=O)C(NC(=O)[C@H](C(C)C)N(C)C(=O)CNC(=O)C(C)CCCCN)C(C)C` (stereo partly drawn) [Sample 29, AcLysGly-MMAD], the results for the IC50 with A431 cells and in the assay with HT-29 cells were 8.42 nM and 0.00514 µM, respectively.
In the case of VC-PABC-MMAF [Sample 24], the half-inhibitory concentration (IC50) stood at 0.427 µM in the assay on BxPC3 cells and 0.483 µM in the assay on SW620 cells (values only for free compounds).

The record behind these values is patent US20130230543A1, “ENGINEERED POLYPEPTIDE CONJUGATES AND METHODS FOR MAKING THEREOF USING […]” (priority 2010, published 2013).
